Assay [1] relates to 35S::GFP-PYR1*^-MANDI transgenic plants. Description: Thermography of leaf temperature after chemical treatment. It is filed as in vivo, Arabidopsis thaliana. The following applies: for leaf temperature: T1 plants, 24 hours after application, FIG. 10. The text has this:
To examine the effects of over-expressing either PYR1*^-MANDI or HAB1* in Arabidopsis thaliana, we made 35S-driven GFP-PYR1*^-MANDI and GFP-HAB1* constructs by cloning the mutant genes into the binary vector pEGAD, and the resultant plasmids were transformed into Agrobacterium tumefaciens. The floral dip method was used to generate T0 transgenic seed for both constructs and the T0 seed was germinated in soil containing glufosinate to select for transgenic T1 plants. The PYR1*^-MANDI T1 plants isolated were grown for ˜5 weeks and then treated with mandipropamid, using comparisons to wild type Columbia plants and a previously constructed 35S::PYR1^MANDI transgenic strain as controls. The treated plants were thermographed 24 hours after chemical applications to examine leaf temperature, which increases after ABA responses are activated, due to reduced transpiration. To examine different mandipropamid concentrations, the plants were first treated with 1 μM mandipropamid and then 3 days later were treated again with 10 μM mandipropamid.
Several T1 transgenic seed were propagated and 3 homozygous single insertion transgenic lines identified by glufosinate segregation patterns in the T3 seedlings. GFP-PYR1*^-MANDI protein levels were established by western blotting using an anti-GFP antibody, as described above and the three lines had similar levels of protein expression.

The test system of assay [2] is 35S::GFP-cyt-HAB1* and 35S::nuc-PYR1*^-MANDI. Description: Mandipropamid control of protein nuclear localization, transient co-expression, confocal microscopy. The class given is in vivo, N. benthamiana. The note with it: 50 μM mandipropamid, 24 hours; FIG. 13. An excerpt:
To test this idea, we created a nuclear localized version of PYR1*^-MANDI (SEQ ID NO:32) and a cytoplasmically localized GFP-HAB1*(SEQ ID NO:33), co-expressed the two components in N. benthamiana, and subsequently examined the localization of GFP-HAB1* in response to mandipropamid using confocal microscopy. To accomplish this, we cloned PYR1*^-MANDI into the yeast two hybrid vector pAD, generating a GAL4 activation domain fusion to PYR1*^-MANDI. The GAL4 activation domain present in pAD contains a synthetic SV40 nuclear localization signal (NLS) at its N-terminus. […]
To characterize these components, 35S::GFP-cyt-HAB1* and 35S::nuc-PYR1*^-MANDI were transiently co-expressed in N. benthamiana, as described above, and plants treated with a mock or mandipropamid solution (FIG. 13). […] The leaf tissue was scanned manually by epi-fluorescence to identify patches of GFP^+ cells and then observed by spinning disk confocal microscopy, collecting ˜10 micron deep sections that spanned the entire epidermal cell layer. […] Fluorescence imaging was done using a custom built spinning disk system (Solamere Technology, Inc) with a Yokagawa W1 spinning disk (Yokagawa), EM-CCD camera (Hamamatsu 9100c) and a Nikon Eclipse TE (Nikon) inverted stand. […]

`C#CCOc1ccc(CCNC(=O)C(OCC#C)c2ccc(Cl)cc2)cc1OC` (stereo not shown) [mandipropamid]: the leaf temperature entry in assay [1] (1 μM mandipropamid) and in assay [1] (10 μM mandipropamid (3 days after 1 μM)) was “Neither of the treatments elicited substantial alterations in leaf temperature” throughout. Further, the “leaf temperature in comparison to wild type control plants” value in assay [1] (two homozygous lines, 5 μM mandipropamid, FIG. 11) is given as “did not reveal differences in leaf temperature”. Moreover, in assay [2], the “localization of GFP-cyt-HAB1*” value is recorded as “predominantly nuclear localization pattern”.
